Experimental data as given in patent US11332459B2 (TEIJIN PHARMA LIMITED, priority 2017, dated 2022).
Counter-ions that a name gives are not always drawn.

Target: T1, human TRPC6 (Homo sapiens, UniProt Q9Y210)
T1 construct: expressed in transfected cells
T1 sequence (Q9Y210 1-931): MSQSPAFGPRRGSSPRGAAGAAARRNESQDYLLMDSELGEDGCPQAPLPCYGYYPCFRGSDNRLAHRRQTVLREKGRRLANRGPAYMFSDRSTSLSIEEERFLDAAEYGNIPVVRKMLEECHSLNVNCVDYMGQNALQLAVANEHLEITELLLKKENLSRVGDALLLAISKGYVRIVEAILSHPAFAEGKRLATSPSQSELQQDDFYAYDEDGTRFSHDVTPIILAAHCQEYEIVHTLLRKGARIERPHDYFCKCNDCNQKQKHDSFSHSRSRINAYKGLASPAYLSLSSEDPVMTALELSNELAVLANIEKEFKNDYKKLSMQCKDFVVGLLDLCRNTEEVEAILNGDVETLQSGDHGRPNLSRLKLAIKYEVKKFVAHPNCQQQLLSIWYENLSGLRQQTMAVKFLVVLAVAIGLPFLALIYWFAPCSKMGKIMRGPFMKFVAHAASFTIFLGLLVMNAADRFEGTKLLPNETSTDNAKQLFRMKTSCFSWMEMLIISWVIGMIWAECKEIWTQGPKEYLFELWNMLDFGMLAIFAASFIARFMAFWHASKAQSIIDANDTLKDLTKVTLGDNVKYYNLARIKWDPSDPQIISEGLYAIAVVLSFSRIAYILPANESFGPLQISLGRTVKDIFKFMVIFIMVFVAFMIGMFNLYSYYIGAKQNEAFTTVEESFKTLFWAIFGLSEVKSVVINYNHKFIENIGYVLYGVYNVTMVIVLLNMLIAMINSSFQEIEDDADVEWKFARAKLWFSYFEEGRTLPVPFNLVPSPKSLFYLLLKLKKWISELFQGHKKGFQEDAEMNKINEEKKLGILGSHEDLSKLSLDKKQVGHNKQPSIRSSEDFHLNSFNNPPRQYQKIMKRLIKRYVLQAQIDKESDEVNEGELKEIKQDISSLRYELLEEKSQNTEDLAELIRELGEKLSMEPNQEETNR
Assay: TRPC6 calcium flux assay (FLIPR, OAG-stimulated calcium influx)
Type: cell-based
Conditions: HEK293 cells stably transfected with human TRPC6, read-out: hTRPC6 Potency
Procedure, shortened: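 IC50 derived by plotting background-corrected peak fluorescence (180 s window, normalized to OAG-triggered signal vs buffer) against dose. Stable human TRPC6 HEK293 line was dye-loaded, exposed to compound 25 min, then challenged with 50 uM final OAG in 2 mM Ca2+ HEPES buffer pH 7.2, 0.5% DMSO.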

Structure (SMILES) | IC50
N#Cc1ccc(Cn2c(N3CCC[C@]4(CCCN4)C3)nc3ccccc32)nc1 [Example 135, 6-((2-((5R)-1,7-diazaspiro[4.5]decan-7-yl)-1H-benzimidazol-1-yl)methyl)-3-pyridinecarbonitrile] | > 3.75 µM
N#Cc1ccc2c(c1)CC[C@H]2n1c(N2CC[C@@H](F)[C@H](N)C2)nc2ccccc21 [Example 231, (R)-1-(2-((3R,4R)-3-amino-4-fluoropiperidin-1-yl)-1H-benzo[d]imidazol-1-yl)-2,3-dihydro-1H-indene-5-carbonitrile hydrochloride] | 0.737 µM
CN(C)C(=O)Cn1c(N2CC[C@@H](F)[C@H](N)C2)nc2cc(F)cc(F)c21 [Example 594, 2-(2-((3R,4R)-3-amino-4-fluoropiperidin-1-yl)-5,7-difluoro-1H-benzo[d]imidazol-1-yl)-N,N-dimethylacetamide] | > 3.75 µM
N[C@@H]1CCCN(c2nc3ccccc3n2Cc2cc(-c3cccc(Cl)c3)no2)C1 [Example 392, (R)-1-(1-((3-(3-chlorophenyl)isoxazol-5-yl)methyl)-1H-benzo[d]imidazol-2-yl)piperidin-3-amine] | 2.24 µM
N#Cc1ccc2c(c1)nc(N1CC[C@@H](F)[C@H](N)C1)n2Cc1ccc(C(F)(F)F)nc1 [Example 244, 2-((3R,4R)-3-amino-4-fluoropiperidin-1-yl)-1-((6-(trifluoromethyl)pyridin-3-yl)methyl)-1H-benzo[d]imidazole-5-carbonitrile hydrochloride] | > 3.75 µM
N[C@@H]1CN(c2nc3cc(F)c(F)cc3n2Cc2cc(Cl)ccc2Cl)CC[C@H]1F [Example 343, (3R,4R)-1-(1-(2,5-dichlorobenzyl)-5,6-difluoro-1H-benzimidazol-2-yl)-4-fluoro-3-piperidinamine] | 0.804 µM
N#Cc1ccc2nc(N3CC[C@@H](F)[C@H](N)C3)n(Cc3ccc(C(F)(F)F)nc3)c2c1 [Example 243, 2-((3R,4R)-3-amino-4-fluoropiperidin-1-yl)-1-((6-(trifluoromethyl)pyridin-3-yl)methyl)-1H-benzo[d]imidazole-6-carbonitrile hydrochloride] | 1.97 µM
CN(CC(F)(F)F)C(=O)Cn1c(N2CC[C@@H](F)[C@H](N)C2)nc2cc(F)cc(F)c21 [Example 591, 2-(2-((3R,4R)-3-amino-4-fluoropiperidin-1-yl)-5,7-difluoro-1H-benzo[d]imidazol-1-yl)-N-methyl-N-(2,2,2-trifluoroethyl)acetamide] | 1.59 µM
Cc1nnc(Cn2c(N3CCC(F)(F)[C@H](N)C3)nc3cc(F)ccc32)s1 [Example 597, (R)-4,4-difluoro-1-(5-fluoro-1-((5-methyl-1,3,4-thiadiazol-2-yl)methyl)-1H-benzo[d]imidazol-2-yl)piperidin-3-amine] | > 3.75 µM
Cc1nc(-c2ccccc2)sc1Cn1c(N2CC[C@@H](F)[C@H](N)C2)nc2cc(F)ccc21 [Example 593, (3R,4R)-4-fluoro-1-(5-fluoro-1-((4-methyl-2-phenylthiazol-5-yl)methyl)-1H-benzo[d]imidazol-2-yl)piperidin-3-amine] | 2.12 µM
N#Cc1ccc(Cn2c(N3CCC[C@@H](N)C3)nc3ccccc32)nc1 [Example 291, (R)-6-((2-(3-aminopiperidin-1-yl)-1H-benzo[d]imidazol-1-yl)methyl)nicotinonitrile] | > 3.75 µM
CS(=O)(=O)c1ccc2c(c1)nc(N1CC[C@@H](F)[C@H](N)C1)n2Cc1ccc(Cl)cn1 [Example 30, (3R,4R)-1-(1-((5-chloropyridin-2-yl)methyl)-5-(methylsulfonyl)-1H-benzo[d]imidazol-2-yl)-4-fluoropiperidin-3-amine] | 1.94 µM
CC1COCC(C)N1C(=O)Cn1c(N2CC[C@@H](F)[C@H](N)C2)nc2ccc(F)cc21 (stereo partly drawn) [Example 683, 2-(2-((3R,4R)-3-amino-4-fluoropiperidin-1-yl)-6-fluoro-1H-benzo[d]imidazol-1-yl)-1-(3,5-dimethylmorpholino)ethan-1-one] | 0.29 µM
CS(=O)(=O)N1CCN(C(=O)Cn2c(N3CC[C@@H](F)[C@H](N)C3)nc3cc(F)c(F)cc32)CC1 [Example 649, 2-(2-((3R,4R)-3-amino-4-fluoropiperidin-1-yl)-5,6-difluoro-1H-benzo[d]imidazol-1-yl)-1-(4-(methylsulfonyl)piperazin-1-yl)ethanone] | > 3.75 µM

Stronger by IC50, values ahead:

IC50 | Structure (SMILES)
0.0133 µM | CN(CC(F)(F)F)C(=O)Cn1c(N2CC[C@@H](F)[C@H](N)C2)nc2ccc(F)cc21 [Example 457, 2-(2-((3R,4R)-3-amino-4-fluoropiperidin-1-yl)-6-fluoro-1H-benzo[d]imidazol-1-yl)-N-methyl-N-(2,2,2-trifluoroethyl)acetamide]
0.0269 µM | N#Cc1cnc(Cn2c(N3CCC(F)(F)[C@H](N)C3)nc3cc(Cl)ccc32)cn1 [Example 234, (R)-5-((2-(3-amino-4,4-difluoropiperidin-1-yl)-5-chloro-1H-benzo[d]imidazol-1-yl)methyl)pyrazine-2-carbonitrile]
0.00788 µM | N#Cc1ccc(Cn2c(N3CC[C@H](F)[C@H](N)C3)nc3cc(C(F)(F)F)ccc32)nc1 [Example 107, 6-((2-((3R,4S)-3-amino-4-fluoro-1-piperidinyl)-5-(trifluoromethyl)-1H-benzimidazol-1-yl)methyl)-3-pyridinecarbonitrile]
0.0625 µM | CN1CC[C@H](n2c(N3CC[C@@H](F)[C@H](N)C3)nc3cc(F)c(F)cc32)C1=O [Example 245, (S)-3-(2-((3R,4R)-3-amino-4-fluoropiperidin-1-yl)-5,6-difluoro-1H-benzo[d]imidazol-1-yl)-1-methylpyrrolidin-2-one]
0.278 µM | COc1ccc2c(c1)nc(N1CCC[C@@H](N)C1)n2Cc1ccc(C#N)cc1 [Example 186, (R)-4-((2-(3-aminopiperidin-1-yl)-5-methoxy-1H-benzo[d]imidazol-1-yl)methyl)benzonitrile]
0.00492 µM | N#Cc1ccc2c(c1)nc(N1CC[C@H](F)[C@H](N)C1)n2Cc1ncc(Cl)cn1 [Example 204, 2-((3R,4S)-3-amino-4-fluoropiperidin-1-yl)-1-((5-chloropyrimidin-2-yl)methyl)-1H-benzo[d]imidazole-5-carbonitrile]
0.0142 µM | COc1cnc(Cn2c(N3CC[C@@H](F)[C@H](N)C3)nc3ccccc32)nc1 [Example 194, (3R,4R)-4-fluoro-1-(1-((5-methoxypyrimidin-2-yl)methyl)-1H-benzo[d]imidazol-2-yl)piperidin-3-amine]
0.00151 µM | N#Cc1ccc(Cn2c(N3CC[C@@H](F)[C@H](N)C3)nc3ccc(C(F)(F)F)nc32)nc1 [Example 453, 6-((2-((3R,4R)-3-amino-4-fluoropiperidin-1-yl)-5-(trifluoromethyl)-3H-imidazo[4,5-b]pyridin-3-yl)methyl)nicotinonitrile]
0.224 µM | N#Cc1ccc(Cn2c(N3CC[C@H](F)[C@@H](N)C3)nc3ccccc32)nc1 [Example 16, 6-((2-((3S,4S)-3-amino-4-fluoropiperidin-1-yl)-1H-benzo[d]imidazol-1-yl)methyl)nicotinonitrile]
0.123 µM | COc1ccc2nc(N3CC[C@@H](F)[C@H](N)C3)n(CC(=O)N(C)C)c2c1 [Example 448, 2-(2-((3R,4R)-3-amino-4-fluoropiperidin-1-yl)-6-methoxy-1H-benzo[d]imidazol-1-yl)-N,N-dimethylacetamide]
0.185 µM | N[C@@H]1CN(c2nc3cc(F)ccc3n2CC(=O)N2CCC2)CC[C@H]1F [Example 514, 2-(2-((3R,4R)-3-amino-4-fluoropiperidin-1-yl)-5-fluoro-1H-benzo[d]imidazol-1-yl)-1-(azetidin-1-yl)ethan-1-one]
0.00397 µM | N#Cc1ccc(Cn2c(N3CCC(F)(F)[C@H](N)C3)nc3ccc(C#N)cc32)nc1 [Example 55, (R)-2-(3-amino-4,4-difluoropiperidin-1-yl)-1-((5-cyanopyridin-2-yl)methyl)-1H-benzo[d]imidazole-6-carbonitrile]
0.14 µM | N#Cc1ccc2c(c1)nc(N1CC[C@@H](F)[C@H](N)C1)n2Cc1ccc(F)cn1 [Example 191, 2-((3R,4R)-3-amino-4-fluoropiperidin-1-yl)-1-((5-fluoropyridin-2-yl)methyl)-1H-benzo[d]imidazole-5-carbonitrile]
0.000931 µM | N#Cc1ccc(Cn2c(N3CCC(F)(F)[C@H](N)C3)nc3c(F)cc(F)cc32)nc1 [Example 87, (R)-6-((2-(3-amino-4,4-difluoropiperidin-1-yl)-4,6-difluoro-1H-benzo[d]imidazol-1-yl)methyl)nicotinonitrile hydrochloride]
